Reference: patent publication US11746100B2 (GLOBAL BLOOD THERAPEUTICS, INC., priority 2020, dated 2023)

target: T1, human ferroportin (Homo sapiens, UniProt Q9NP59); assay: Biological in-vitro ferroportin internalization assay (luciferase reporter); format: cell-based; details: average pEC50; stably-transfected CHO cell line expressing human ferroportin tagged to a luciferase reporter; 6 h incubation with test compound
T1 construct: luciferase reporter (read with the Nano-Glo Luciferase Assay System); expressed in transfected cells; host or cells: CHO cells, stably transfected, expression induced with doxycycline
T1 sequence (Q9NP59 1-571): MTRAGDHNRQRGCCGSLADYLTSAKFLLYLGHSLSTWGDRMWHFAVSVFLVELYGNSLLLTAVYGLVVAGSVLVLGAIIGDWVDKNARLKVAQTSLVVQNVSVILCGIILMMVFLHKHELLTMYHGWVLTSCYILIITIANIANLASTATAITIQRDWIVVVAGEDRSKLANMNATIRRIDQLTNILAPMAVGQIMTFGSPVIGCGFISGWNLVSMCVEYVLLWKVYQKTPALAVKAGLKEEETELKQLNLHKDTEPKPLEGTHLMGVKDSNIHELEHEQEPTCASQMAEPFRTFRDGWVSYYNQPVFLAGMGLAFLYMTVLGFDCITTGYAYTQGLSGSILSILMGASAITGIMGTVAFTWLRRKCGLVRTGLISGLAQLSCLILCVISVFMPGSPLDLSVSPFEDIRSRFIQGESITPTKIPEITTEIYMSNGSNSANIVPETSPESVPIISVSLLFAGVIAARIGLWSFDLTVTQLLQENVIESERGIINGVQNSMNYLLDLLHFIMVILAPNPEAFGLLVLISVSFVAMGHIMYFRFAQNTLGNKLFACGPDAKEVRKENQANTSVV
Procedure: The protocol for this assay is generally as described in WO2018/128828, incorporated herein by reference in its entirety. Functional internalization of ferroportin protein was measured using a stably-transfected CHO cell line expressing the human ferroportin tagged to a luciferase reporter. Cells were plated for 24 h in the presence of ferric ammonium citrate (FAC). Ferroportin protein expression was induced with doxycycline for 24 h. The next day, the compounds were added. Test compounds were dissolved in DMSO. Cells were incubated with the test compounds for 6 h, and subsequently luciferase activity was measured using the Nano-Glo Luciferase Assay System and Glomax (Promega, Madison, Wis.). The average pEC50 was determined for the test compounds.

| pEC50 | SMILES |
| --- | --- |
| 8.4 | CN(CC(=O)NC(C)(C)C)c1nc(-c2cc(OCCN3C[C@H]4C[C@@H]3CO4)ccn2)nc2c1CCC2 [Compound 462, N-tert-butyl-2-{methyl[2-(4-{2-[(1R,4R)-2-oxa-5-azabicyclo[2.2.1]heptan-5-yl]ethoxy}pyridin-2-yl)-5H,6H,7H-cyclopenta[d]pyrimidin-4-yl]amino}acetamide] |
| 7.2 | COc1ccc(NC(=O)CN(C)c2nc(-c3cc4ccccc4cn3)nc3c2CCC3)cn1 [Compound 227, 2-{[2-(isoquinolin-3-yl)-5H,6H,7H-cyclopenta[d]pyrimidin-4-yl](methyl)amino}-N-(6-methoxypyridin-3-yl)acetamide] |
| 8.0 | CC(C)NC(=O)[C@@H](C)N(C)c1nc(-c2cc(OCCN(C)C)ccn2)nc2c1CCC2 [Compound 433, (2R)-2-[(2-{4-[2-(dimethylamino)ethoxy]pyridin-2-yl}-5H,6H,7H-cyclopenta[d]pyrimidin-4-yl)(methyl)amino]-N-(propan-2-yl)propanamide] |
| 7.6 | [2H]C([2H])([2H])N(CCOc1ccnc(-c2nc3c(c(N(C)CC(=O)NC(C)(C)C)n2)CCC3)c1)C([2H])([2H])[2H] [Compound 508, N-tert-butyl-2-{[2-(4-{2-[di(2H3)methylamino]ethoxy}pyridin-2-yl)-5H,6H,7H-cyclopenta[d]pyrimidin-4-yl](methyl)amino}acetamide] |
| 7.6 | CC(C)[C@H](C(=O)NC(C)(C)C)N(C)c1nc(-c2ccccn2)nc2c1CCC2 [Compound 114, (2R)—N-tert-butyl-3-methyl-2-{methyl[2-(pyridin-2-yl)-5H,6H,7H-cyclopenta[d]pyrimidin-4-yl]amino}butanamide] |
| 7.9 | CN(C)CCOc1ccnc(-c2nc3c(c(N(C)CC(=O)NC(C)(C)C)n2)CC(C)(C)C3)c1 [Compound 454, N-tert-butyl-2-[(2-{4-[2-(dimethylamino)ethoxy]pyridin-2-yl}-6,6-dimethyl-5H,6H,7H-cyclopenta[d]pyrimidin-4-yl)(methyl)amino]acetamide] |
| 8.2 | CCN(CC)CCOc1ccnc(-c2nc3c(c(N(C)CC(=O)NC(C)(C)C)n2)CCC3)c1 [Compound 400, N-tert-butyl-2-[(2-{4-[2-(diethylamino)ethoxy]pyridin-2-yl}-5H,6H,7H-cyclopenta[d]pyrimidin-4-yl)(methyl)amino]acetamide] |
| 7 | CN(CC(=O)Nc1cnn(C)c1)c1nc(-c2cc(OC3COC3)ccn2)nc2c1CCC2 [Compound 254, 2-[methyl({2-[4-(oxetan-3-yloxy)pyridin-2-yl]-5H,6H,7H-cyclopenta[d]pyrimidin-4-yl})amino]-N-(1-methyl-1H-pyrazol-4-yl)acetamide] |
| 8 | COc1ccc(NC(=O)CN(C)c2nc(-c3cc(OCCO)ccn3)nc3c2CCC3)nc1 [Compound 209, 2-({2-[4-(2-hydroxyethoxy)pyridin-2-yl]-5H,6H,7H-cyclopenta[d]pyrimidin-4-yl}(methyl)amino)-N-(5-methoxypyridin-2-yl)acetamide] |
| 6.3 | COc1ccc(N2CCN(c3nc(-c4ccccn4)nc4c3CCC4)CCC2=O)cc1 [Compound 203, 4-(4-methoxyphenyl)-1-[2-(pyridin-2-yl)-5H,6H,7H-cyclopenta[d]pyrimidin-4-yl]-1,4-diazepan-5-one] |
| 7.2 | Cc1ccnc(-c2cc(N(C)CC(=O)NC(C)(C)C)c3c(n2)CCC3)c1 [Compound 68, N-tert-butyl-2-{methyl[2-(4-methylpyridin-2-yl)-5H,6H,7H-cyclopenta[b]pyridin-4-yl]amino}acetamide] |
| 7.3 | COc1ccnc(-c2nc3c(c(N(C)CC(=O)N(C)C)n2)CCC3)c1 [Compound 157, 2-{[2-(4-methoxypyridin-2-yl)-5H,6H,7H-cyclopenta[d]pyrimidin-4-yl](methyl)amino}-N,N-dimethylacetamide] |
| 7.6 | COc1ccc(NC(=O)CN(C)c2nc(-c3cc(O[C@H]4CCOC4)ccn3)nc3c2CCC3)cn1 [Compound 347] |
| 7.2 | CN(CC(=O)Nc1ccc2c(c1)OC(F)(F)O2)c1nc(-c2ccccn2)nc2c1CCC2 [Compound 32, N-(2,2-difluoro-2H-1,3-benzodioxol-5-yl)-2-{methyl[2-(pyridin-2-yl)-5H,6H,7H-cyclopenta[d]pyrimidin-4-yl]amino}acetamide] |
| 8.2 | CN(C)CCSc1ccnc(-c2nc3c(c(N(C)CC(=O)NC(C)(C)C)n2)CCC3)c1 [Compound 499, N-tert-butyl-2-{[2-(4-{[2-(dimethylamino)ethyl]sulfanyl}pyridin-2-yl)-5H,6H,7H-cyclopenta[d]pyrimidin-4-yl](methyl)amino}acetamide] |
| 7.3 | CC(C(=O)NC1CCCCC1)N(C)c1nc(-c2ccccn2)nc2c1CCC2 (centres unmarked) [Compound 91, N-cyclohexyl-2-{methyl[2-(pyridin-2-yl)-5H,6H,7H-cyclopenta[d]pyrimidin-4-yl]amino}propanamide] |
| 6.9 | C[C@H](C(=O)NC1(C)CC1)N(C)c1nc(-c2ccccn2)nc2c1CCC2 [Compound 204, (2R)-2-{methyl[2-(pyridin-2-yl)-5H,6H,7H-cyclopenta[d]pyrimidin-4-yl]amino}-N-(1-methylcyclopropyl)propanamide] |
| 7.4 | COc1ccnc(-c2nc3c(c(N(C)CC(=O)N4CC[C@H](O)C4)n2)CCC3)c1 [Compound 472, 1-[(3S)-3-hydroxypyrrolidin-1-yl]-2-{[2-(4-methoxypyridin-2-yl)-5H,6H,7H-cyclopenta[d]pyrimidin-4-yl](methyl)amino}ethan-1-one] |
| 7.8 | C[C@H](C(=O)NC1CCCCC1)N(C)c1nc(-c2cn(C)cn2)nc2c1CCC2 [Compound 118, (2R)—N-cyclohexyl-2-{methyl[2-(1-methyl-1H-imidazol-4-yl)-5H,6H,7H-cyclopenta[d]pyrimidin-4-yl]amino}propanamide] |
| 6.7 | CN(CC(=O)NC(C)(C)C)c1nc(-c2cn3ccccc3n2)nc2c1CCC2 [Compound 166, N-tert-butyl-2-[(2-{imidazo[1,2-a]pyridin-2-yl}-5H,6H,7H-cyclopenta[d]pyrimidin-4-yl)(methyl)amino]acetamide] |
| 7.2 | COc1ccnc(-c2nc3c(c(N(C)CC(=O)Nc4cncnc4)n2)CCC3)c1 [Compound 178] |
| 8.1 | CN(CC(=O)Nc1ccc(F)cc1)c1nc(-c2cc(OCCO)ccn2)nc2c1CCC2 [Compound 198, N-(4-fluorophenyl)-2-({2-[4-(2-hydroxyethoxy)pyridin-2-yl]-5H,6H,7H-cyclopenta[d]pyrimidin-4-yl}(methyl)amino)acetamide] |
| 6.9 | CN(CC(=O)NC(C)(C)C)c1nc(-c2cn(CCO)cn2)nc2c1CCC2 [Compound 195, N-tert-butyl-2-({2-[1-(2-hydroxyethyl)-1H-imidazol-4-yl]-5H,6H,7H-cyclopenta[d]pyrimidin-4-yl}(methyl)amino)acetamide] |
| 7.9 | CN1CCC[C@H](Oc2ccnc(-c3nc4c(c(N(C)CC(=O)NC(C)(C)C)n3)CCC4)c2)C1 [Compound 490, N-tert-butyl-2-{methyl[2-(4-{[(3S)-1-methylpiperidin-3-yl]oxy}pyridin-2-yl)-5H,6H,7H-cyclopenta[d]pyrimidin-4-yl]amino}acetamide] |
| 7.4 | CC(C)NC(=O)CN(C)c1nc(-c2cc(OCC3(O)CC3)ccn2)nc2c1CCC2 [Compound 431, 2-[(2-{4-[(1-hydroxycyclopropyl)methoxy]pyridin-2-yl}-5H,6H,7H-cyclopenta[d]pyrimidin-4-yl)(methyl)amino]-N-(propan-2-yl)acetamide] |
| 8.2 | [2H]C([2H])([2H])N(CC(=O)NC(C)(C)C)c1nc(-c2cc(OCC(C)(C)O)ccn2)nc2c1CCC2 [Compound 509, N-tert-butyl-2-({2-[4-(2-hydroxy-2-methylpropoxy)pyridin-2-yl]-5H,6H,7H-cyclopenta[d]pyrimidin-4-yl}((2H3)methyl)amino)acetamide] |
| 8.2 | CN(CC(=O)NC(C)(C)C)c1nc(-c2cc(OC[C@H]3CCCN3C)ccn2)nc2c1CCC2 [Compound 411, N-tert-butyl-2-{methyl[2-(4-{[(2R)-1-methylpyrrolidin-2-yl]methoxy}pyridin-2-yl)-5H,6H,7H-cyclopenta[d]pyrimidin-4-yl]amino}acetamide] |
| 5.2 | CN(CC(=O)NC(C)(C)C)c1nc(-c2ccn(C)n2)nc2c1CCC2 [Compound 160, N-tert-butyl-2-{methyl[2-(1-methyl-1H-pyrazol-3-yl)-5H,6H,7H-cyclopenta[d]pyrimidin-4-yl]amino}acetamide] |

| SMILES | pEC50 |
| --- | --- |
| CCC(O)(CC)COc1ccnc(-c2nc3c(c(N(C)CC(=O)NC)n2)CCC3)c1 [Compound 443, 2-({2-[4-(2-ethyl-2-hydroxybutoxy)pyridin-2-yl]-5H,6H,7H-cyclopenta[d]pyrimidin-4-yl}(methyl)amino)-N-methylacetamide] | 7.8 |
